Reference: US6967196B1, “Sulfonamide compounds and uses thereof” (Bristol-Myers Squibb Company, priority 1999, dated 2005)
Counter-ions that a name gives are not always drawn. Like-named read-outs stand apart in the source and are kept apart here. Each block holds one molecule with its values, some of them ahead of it.

Tested on: amyloid β production in transfected H4 (human neuroglioma) cells stably expressing APP constructs
Assay: In vitro cell-based assay of inhibitors of amyloid β production (ELISA)
Settings: amyloid β in medium by ELISA
In short: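 Plate wt/variant APP cells; ≥6 h later swap to medium + compound (10-100 μM screen); incubate ~16 h; sample medium; Aβ ELISA with C-terminal capture / N-terminal detection Abs; quantify vs Aβ standard curve.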

[1] = transfected H4 cells stably expressing APP, approx. 16 h incubation, read-out: ACTIVITY (IC50, inhibition of amyloid β production)
[2] = transfected H4 cells stably expressing APP, approximately 16 hours incubation, read-out: ACTIVITY (IC50, inhibition of amyloid β production)
[3] = transfected H4 cells stably expressing APP constructs, approximately 16 hours incubation, read-out: ACTIVITY (IC50, inhibition of amyloid β production)
[4] = Homo sapiens, 16 h, transfected H4 cells stably expressing APP constructs, approximately 16 hours incubation, read-out: ACTIVITY (IC50, inhibition of amyloid β production)
[5] = transfected H4 cells stably expressing APP, approximately 16 hours incubation, Table B, read-out: ACTIVITY (IC50, inhibition of amyloid β production)
[6] = Homo sapiens, 16 h, transfected H4 cells expressing APP, approximately 16 hours incubation, read-out: ACTIVITY (IC50, inhibition of amyloid β production)

Molecule: CC(=O)Nc1nc(C)c(S(=O)(=O)N(Cc2ccccc2OCCCN2CCCCC2)c2cc(Cl)ccc2Cl)s1 [Example 1022, N-{5-[(2,5-dichloro{2-[3-(1-piperidinyl)propoxy]benzyl}anilino)sulfonyl]-4-methyl-1,3-thiazol-2-yl}acetamide hydrochloride]
IC50 [2]: > 500 nM

Molecule: C[C@H](c1ccccc1COC(=O)NCc1ccc2c(c1)OCO2)N(c1cc(F)ccc1F)S(=O)(=O)c1ccc(Cl)cc1 [Example 673, 2-((1R)-1-{[(4-chlorophenyl)sulfonyl]-2,5-difluoroanilino}ethyl)benzyl 1,3-benzodioxol-5-ylmethylcarbamate]
IC50 [1]: 100 to 500 nM

Molecule: N-{3-[2-(1-{[(4-chlorophenyl)sulfonyl]-2,5-difluoroanilino}ethyl)phenoxy]propyl}-2,6-difluoro-N-methylbenzamide [Example 755]
IC50 [1]: 100 to 500 nM

Molecule: CC[S+]([O-])CCC[C@@H](C)N(c1cc(Cl)ccc1CO)S(=O)(=O)c1ccc(Cl)cc1 (stereo partly drawn) [Example 1222, 4-chloro-N-[5-chloro-2-(hydroxymethyl)phenyl]-N-[1(R)-methyl-(4-ethylsulfinyl)butyl]benzenesulfonamide]
IC50 [3]: ≤ 25 nM

Molecule: S-ethyl 2-[2-(1-{[(4-chlorophenyl)sulfonyl]-2,5-difluoroanilino}ethyl)phenoxy]ethyl(methyl)thiocarbamate [Example 856]
IC50 [2]: 100 to 500 nM

Molecule: N-{2-[2-(1-{[(4-chlorophenyl)sulfonyl]-2,5-difluoroanilino}ethyl)phenoxy]ethyl}-N-methylcyclohexanecarboxamide [Example 511]
IC50 [5]: 100 to 500 nM

Molecule: (2E)-N-{4-[2-(1-{[(4-chlorophenyl)sulfonyl]-2,5-difluoroanilino}ethyl)phenoxy]butyl}-N-methyl-2-butenamide [Example 495]
IC50 [5]: 100 to 500 nM

Molecule: O=S(=O)(c1ccccc1)N(Cc1ccccc1OCCCN1CCC(O)C1)c1ccccc1 (centres unmarked) [Example 279, N-{2-[3-(3-hydroxy-1-pyrrolidinyl)propoxy]benzyl}-N-phenylbenzenesulfonamide Hydrochloride]
IC50 [5]: 25 to 50 nM

Molecule: CC(c1ccccc1OCCCn1ccnc1)N(c1cc(F)ccc1F)S(=O)(=O)c1ccc(Cl)cc1 (centres unmarked) [Example 1047, 4-chloro-N-(2,5-difluorophenyl)-N-(1-{2-[3-(1H-imidazol-1-yl)propoxy]phenyl}ethyl)benzenesulfonamide]
IC50 [2]: > 500 nM

Molecule: CC(C)[C@@H](NC(=O)CCC[C@@H](C)N(c1cc(Cl)ccc1F)S(=O)(=O)c1ccc(Cl)cc1)C(=O)O [Example 544, (R)-4-Chloro-N-(5-chloro-2-fluorophenyl)-N-[5-[N-(R)-[1-(carboxy)-2-methylpropyl]amino]-1-methyl-5-oxopentyl]benzenesulfonamide]
IC50 [1]: 100 to 500 nM

Molecule: N-{3-[2-(1-{[(4-chlorophenyl)sulfonyl]-2,5-difluoroanilino}ethyl)phenoxy]propyl}-3,5-dimethoxy-N-methylbenzamide [Example 802]
IC50 [1]: 100 to 500 nM

Molecule: CSC1CCN(CCC[C@@H](C)N(c2cc(Cl)ccc2Cl)S(=O)(=O)c2ccc(Cl)cc2)C1 (stereo partly drawn) [Example 1134, 4-chloro-N-(2,5-dichlorophenyl)-N-[4-[(3-methylthio)-1-pyrrolidinyl]-1(R)-methylbutyl]benzenesulfonamide]
IC50 [3]: 100 to 500 nM

Molecule: CC1CN(CCCCC[C@@H](C)N(c2cc(Cl)ccc2F)S(=O)(=O)c2ccc(Cl)cc2)CCS1(=O)=O (some centres unmarked) [Example 1274]
IC50 [3]: ≤ 25 nM

Molecule: COC(=O)[C@@H](NC(=O)CC[C@@H](C)N(c1cc(Cl)ccc1F)S(=O)(=O)c1ccc(Cl)cc1)C(C)C [Example 1257, (R)-4-Chloro-N-(5-chloro-2-fluorophenyl)-N-[4-[N-(S)-[1-(methoxycarbonyl)-2-methylpropyl]amino]-1-methyl-4-oxobutyl]benzenesulfonamide]
IC50 [3]: 50 to 100 nM

Other lines, results leading:

IC50 [1]: 100 to 500 nM
Molecule: N-{3-[2-(1-{[(4-chlorophenyl)sulfonyl]-2,5-difluoroanilino}methyl)phenoxy]propyl}-N-methyl-2-phenylcyclopropanecarboxamide [Example 759]

IC50 (Table B, transfected H4 cells stably expressing APP, approximately 16 hours incubation, read-out: ACTIVITY (inhibitory concentration IC50, inhibition of amyloid β production)): ≤ 25 nM
Molecule: C[C@H](CCSCC(=O)O)N(c1cc(Cl)ccc1Cl)S(=O)(=O)c1ccc(Cl)cc1 [Example 180, (6R)-6-[(2,5-dichlorophenyl)[(4-chlorophenyl)sulfonyl]amino]-3-thioheptanoic Acid]

IC50 (Homo sapiens, 16 h, transfected H4 cells stably expressing APP, approximately 16 hours incubation, read-out: ACTIVITY (IC50, inhibition of amyloid β production)): 100 to 500 nM
Molecule: O=S(=O)(c1ccc(Cl)cc1)N(Cc1ccccc1OCCSC1CCCCC1)c1cc(F)ccc1F [Example 850, 4-chloro-N-{2-[2-(cyclohexylsulfanyl)ethoxy]benzyl}-N-(2,5-difluorophenyl)benzenesulfonamide]

IC50 [4]: ≤ 25 nM
Molecule: C[C@H](CCCS(=O)(=O)N1CCC1)N(c1cc(Cl)ccc1Cl)S(=O)(=O)c1ccc(Cl)cc1 [Example 1198, 4-chloro-N-[2,5-dichlorophenyl]-N-[4-[(1-azetidinyl)sulfonyl]-1(R)-methylbutyl]benzenesulfonamide]

IC50 [2]: > 500 nM
Molecule: N-hydroxy-3-(2-{[(phenylsulfonyl)anilino]methyl}phenyl)propanamide [Example 1042]

IC50 [5]: 50 to 100 nM
Molecule: C[C@H](c1ccc(F)cc1CS(=O)(=O)CCC(=O)O)N(c1cc(F)ccc1F)S(=O)(=O)c1ccc(Cl)cc1 [Example 467, 3-{[2-((1R)-1-{[(4-chlorophenyl)sulfonyl]-2,5-difluoroanilino}ethyl)-5-fluorobenzyl]sulfonyl}propanoic Acid]

IC50 [1]: 100 to 500 nM
Molecule: N-{3-[2-(1-{[(4-chlorophenyl)sulfonyl]-2,5-difluoroanilino}ethyl)phenoxy]propyl}-N-methyl-1-naphthalenesulfonamide [Example 776]

IC50 [4]: ≤ 25 nM
Molecule: C[C@H](CCCS(=O)(=O)N1CCC1)N(c1cc(F)ccc1F)S(=O)(=O)c1ccc(Cl)cc1 [Example 1200, 4-chloro-N-[2,5-difluorophenyl]-N-[4-[(1-azetidinyl)sulfonyl]-1(R)-methylbutyl]benzenesulfonamide]

IC50 [3]: ≤ 25 nM
Molecule: C[C@H](CCSCC(=O)O)N(c1cc(Cl)ccc1Cl)S(=O)(=O)c1ccc(Cl)cc1 [Example 1181, (6R)-6-[(2,5-dichlorophenyl)-[(4-chlorophenyl)sulfonyl]-amino]-3-thioheptanoic acid]

IC50 [4]: > 10000 nM
Molecule: CN(C)CCCOc1ccccc1CN(c1ccccc1)S(=O)(=O)c1ccc([N+](=O)[O-])cc1 [Example 1083, N-{2-[3-(dimethylamino)propoxy]benzyl}-4-nitro-N-phenylbenzenesulfonamide]

IC50 [1]: 100 to 500 nM
Molecule: N-{3-[2-(1-{[(4-chlorophenyl)sulfonyl]-2,5-difluoroanilino}ethyl)phenoxy]propyl}-N-methyl-4-propylbenzamide [Example 656]

IC50 [6]: ≤ 25 nM
Molecule: CCNC(=O)OCC(C)N(c1cc(Cl)ccc1CO)S(=O)(=O)c1ccc(Cl)cc1 (centres unmarked) [Example 1279]

IC50 [6]: > 500 nM
Molecule: C[C@@H](C(=O)NCc1ccccc1Sc1ccccc1CO)N(c1cc(Cl)ccc1F)S(=O)(=O)c1ccc(Cl)cc1 [Example 1363]

IC50 [4]: ≤ 25 nM
Molecule: C[C@H](COC(=O)N1CCCC1)N(c1cc(Cl)ccc1Cl)S(=O)(=O)c1ccc(Cl)cc1 [Example 1237, 4-Chloro-N-(2,5-dichlorophenyl)-N-[2-[[[pyrrolidin-1-yl]carbonyl]oxy]-R-1-methylethyl]benzenesulfonamide]

IC50 (Homo sapiens, 16 h, transfected H4 cells stably expressing APP, approximately 16 hours incubation, Table B, read-out: ACTIVITY (IC50, inhibition of amyloid β production)): 50 to 100 nM
Molecule: C[C@H](c1ccccc1CCC(=O)NC1CCCCC1)N(c1cc(F)ccc1F)S(=O)(=O)c1ccc(Cl)cc1 [Example 401, 3-[2-((1R)-1-{[(4-chlorophenyl)sulfonyl]-2,5-difluoroanilino}ethyl)phenyl]-N-cyclohexylpropanamide]
